Assay results reported in paper PMC12686497, “Exploring neurokinin-1 receptor antagonism for depression with structurally differentiated inhibitors” (Experimental & Molecular Medicine, 2025).

How the values were obtained:
[1] = target: T1, NK1R (hTACR1-HEK293 cells) (Homo sapiens, UniProt P25103); test: FLIPR calcium 6 assay, SP-induced intracellular calcium mobilization; format: cell-based; settings: 1 nM SP
T1 construct: expressed in transfected cells; host or cells: HEK293
Procedure: The following day, the cells were loaded with the FLIPR calcium 6 dye mixed at 1:1 to medium with 2.5 mM probenecid. The assay plate was wrapped with aluminum foil and incubated for 2 h at 37 °C in a humidified CO2 incubator. Each concentration of chemicals was dissolved in 1× Hank’s Balanced Salt Solution (plus 20 mM HEPES buffer, pH 7.4) and added to the well. The plate was incubated for 30 min at 37 °C before measuring. The final concentration of dimethyl sulfoxide was 0.5% in each well. Then, 1 nM SP-induced intracellular calcium mobilization was examined by monitoring the fluorescence intensity (excitation at 485 nm, emission at 525 nm, cutoff filter set at 515 nm) using a Flex Station 3 multimode microplate reader. Changes in fluorescence signal after SP addition were normalized to its starting signal and denoted as F/F0.

[2] = system: IL-1β, TNF-α and IL-6 mRNA; test: qRT-PCR of proinflammatory cytokine mRNA in frontal cortex and hippocampus, LPS model; format: in vivo, C57BL/6 mice; settings: 10 mg/kg i.p., 4 h after LPS, vs LPS-treated group
Procedure: (§1) The ligands were dissolved at a dose of 10 mg/kg in the vehicle (10% dimethyl sulfoxide and 10% Kolliphor in 0.9% saline) and intraperitoneally injected into each animal in experimental groups.
(§2) To generate the lipopolysaccharide (LPS) model, 0.25 mg/kg of LPS from E. coli O26:B6 (Sigma, L3755) was dissolved in 0.9% saline and injected intraperitoneally. The control group was treated with 0.9% saline instead of LPS injection. The mice received injections of either vehicle, compound #1, compound #15 or Aprepitant (Tocris Bioscience) on day 1, 1 h before LPS injection and on day 2.
Four hours after LPS injection, the frontal lobe and hippocampus were isolated from the animal brain and placed in TRIzol solution (Ambion). Total RNA sample (2 μg) was reverse-transcribed into cDNA using Moloney Murine Leukemia Virus reverse transcriptase (M-MLV RT; Promega) and oligo (dT) primer (Novagen). Quantitative reverse transcription polymerase chain reaction (qRT–PCR), which quantifies gene expression levels, was performed using 0.5 μg of the reverse-transcription generated cDNA and specific primer sets (Supplementary Table 3). PCR amplification with iQ SYBR Green Supermix was performed in triplicate using the CFX96 Touch-Time System (Bio-Rad). The final products of qRT–PCR were electrophoresed on 2% agarose gels and visualized with SafeView Nucleic Acid Stain (G108, Applied Biological Materials). Cycle threshold (Ct) values at which the fluorescent signal exceeded the background were determined by qRT–PCR, and expression values for each gene were normalized to expression values of GAPDH. Relative quantification to calculate fold change was performed using the comparative Ct method (ΔΔCt).

[3] = system: LPS-induced depressive-like behavior; test: Tail suspension test (TST) in LPS model; format: in vivo, C57BL/6 mice; settings: 10 mg/kg i.p., vs LPS-treated group
Procedure: as §1, §2
On day 4 after LPS administration, the tail suspension test (TST) was conducted. A four-chamber apparatus divided by nontransparent acrylic partitions was used, and the mice were suspended in each chamber by the tail. A video was recorded for 6 min, and the last 4 min were manually scored for immobility time.

[4] = system: RS-induced despair-like behavior; test: Forced swim test (FST) in restraint stress (RS) model; format: in vivo, C57BL/6 mice; settings: 10 mg/kg i.p. day 11 to 20
Procedure: as §1
To induce depressive-like behaviors in mice, restraint stress (RS) was applied using 50-ml conical tubes with many holes for 20 days, 2 h per day. From day 11 to 20, mice received injections of either vehicle or compound #15.
(§3) On day 21 in the RS model and day 12 in the SI model, the forced swim test (FST) was performed. During each trial, mice were placed in a test cylinder (diameter 15 cm, height 25 cm) filled with water regulated at 25 ± 1 °C, and a video was recorded for 6 min. Immobility time was manually scored during the last 4 min of each trial.

[5] = system: SI-induced despair-like behavior; test: Forced swim test (FST) in social isolation (SI) stress model; format: in vivo, C57BL/6 mice; settings: 10 mg/kg i.p. day 6 to 13
Procedure: as §1
To generate the social isolation (SI) stress model, the animals were single-caged for 14 days. From day 6 to 13, mice received injections of either vehicle or compound #15.
as §3

T1 sequence (P25103 whole entry): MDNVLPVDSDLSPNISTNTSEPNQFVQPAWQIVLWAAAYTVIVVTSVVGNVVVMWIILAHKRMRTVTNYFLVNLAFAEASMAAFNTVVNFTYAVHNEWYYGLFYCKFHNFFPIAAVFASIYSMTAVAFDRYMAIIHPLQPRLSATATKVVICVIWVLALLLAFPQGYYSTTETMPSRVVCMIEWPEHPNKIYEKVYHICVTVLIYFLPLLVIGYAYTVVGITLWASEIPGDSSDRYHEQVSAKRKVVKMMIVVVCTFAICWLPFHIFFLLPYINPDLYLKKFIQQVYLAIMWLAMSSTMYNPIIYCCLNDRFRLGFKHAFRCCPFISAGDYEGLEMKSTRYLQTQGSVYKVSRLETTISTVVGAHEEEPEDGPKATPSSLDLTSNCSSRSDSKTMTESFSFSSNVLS

| Structure (SMILES) | NK1R antagonistic / inhibitory activity (in words) [1] | IL-6 mRNA level ([2]; frontal cortex) | TNF-α mRNA level ([2]; frontal cortex) | IL-1β mRNA level ([2]; hippocampus) | IL-6 mRNA level ([2]; hippocampus) | TNF-α mRNA level ([2]; hippocampus) | immobility time in TST [3] | other results |
| --- | --- | --- | --- | --- | --- | --- | --- | --- |
| COc1ccc(C(C)=O)cc1CC(=O)N(C)Cc1cc(Br)ccc1OC [#2] | weaker inhibitory effects |  |  |  |  |  |  |  |
| COc1ccc(-c2[nH]c3ccc(F)cc3c2CCC(=O)NC(C)c2ccc(-n3cncn3)cc2)cc1 (stereo not shown) [#1] |  | significantly reduced | significantly reduced | significantly reduced | significantly reduced | significantly reduced | significant reduction in immobility time | IC50 (in words) [1]: single-digit micromolar |
| Cc1cc(F)ccc1C1CCN(C(=O)NC2CCOC3(CCOC3)C2)CC1 (stereo not shown) [#3] | weaker inhibitory effects |  |  |  |  |  |  |  |
| C[C@@H](O[C@H]1OCCN(Cc2n[nH]c(=O)[nH]2)[C@H]1c1ccc(F)cc1)c1cc(C(F)(F)F)cc(C(F)(F)F)c1 [Aprepitant, reference compound] |  | significantly reduced | significantly reduced | significantly reduced | significantly reduced | significantly reduced | significant reduction in immobility time |  |
| Cc1ccc2[nH]c(-c3ccc(Br)cc3)c(CCC(=O)NC(c3ccc(C(C)C)cc3)C(C)C)c2c1 (stereo not shown) [#15] |  |  |  |  |  |  | significantly reduced immobility time | IC50 [1]: 79.5 nM; immobility time in FST [4]: notable reduction in immobility time; immobility time in FST [5]: notable reduction in immobility time |
